How the values were obtained:
[1] = molecular target: T1, Dimer of Gag-Pol polyprotein [489-587] (Human immunodeficiency virus 1, UniProt P12497); assay: Protease Inhibition Assay; details: pH 5.5; 22 °C
T1 construct: 489-587
Source text: (§1) In the presence of HIV-l protease, the substrate is rapidly cleaved into two parts. The biotinylated amino terminal fragment binds to the avidin Pandex beads while the FITC-containing carboxy1 terminal fragment is removed through the membrane.

[2] = molecular target: T2, Gag-Pol polyprotein [489-587] (Human immunodeficiency virus 1, UniProt P04585)
T2 construct: 489-587

[3] = molecular target: T2, Gag-Pol polyprotein [489-587]; assay: Protease Inhibition Assay
Source text: as §1

Row | Compound | IC50 [1] [nM] | IC50 [2] [nM] | IC50 [3] [nM]
1 | CC(C)(C)NC(=O)[C@@H]1C[C@@H]2SCC[C@@H]2CN1C[C@@H](O)[C@H](Cc1ccccc1)NC(=O)[C@@H](CS(=O)(=O)c1ccc2ccccc2c1)NS(C)(=O)=O [(3aR,6S,7aS)-N-tert-butyl-5-[(2R,3S)-2-hydroxy-3-[(2S)-2-methanesulfonamido-3-(naphthalene-2-sulfonyl)propanamido]-4-phenylbutyl]-octahydrothieno[3,2-c]pyridine-6-carboxamide] | < 0.2 | < 0.2 | –
2 | CC(C)(C)NC(=O)[C@@H]1C[C@@H]2CCCC[C@@H]2CN1C[C@@H](O)[C@H](Cc1ccccc1)NC(=O)[C@@H](CSc1ccc(F)cc1)NS(C)(=O)=O [(3S,4aS,8aS)-N-tert-butyl-2-[(2R,3S)-3-[(2S)-3-[(4-fluorophenyl)sulfanyl]-2-methanesulfonamidopropanamido]-2-hydroxy-4-phenylbutyl]-decahydroisoquinoline-3-carboxamide] | 24 | – | 24
3 | CC(C)(C)NC(=O)[C@@H]1C[C@@H]2CCCC[C@@H]2CN1C[C@@H](O)[C@H](Cc1ccccc1)NC(=O)[C@@H](CS(=O)(=O)c1ccc(F)cc1)NS(C)(=O)=O [Saquinavir/Nelfinavir deriv.] | 2 | – | 2
4 | CC(=O)N[C@H](CS(=O)(=O)c1ccc(F)cc1)C(=O)N[C@@H](CSc1ccccc1)[C@H](O)CN1C[C@H]2CCS[C@H]2C[C@H]1C(=O)NC(C)(C)C [(3aR,6S,7aS)-N-tert-butyl-5-[(2R,3R)-3-[(2S)-2-acetamido-3-[(4-fluorobenzene)sulfonyl]propanamido]-2-hydroxy-4-(phenylsulfanyl)butyl]-octahydrothieno[3,2-c]pyridine-6-carboxamide] | 1.8 | – | 1.8
5 | CC(C)CN(C[C@@H](O)[C@H](Cc1ccccc1)NC(=O)[C@@H](CS(=O)(=O)c1ccc(F)cc1)NS(C)(=O)=O)C(=O)NC(C)(C)C [(2S)-N-[(2S,3R)-4-[(tert-butylcarbamoyl)(2-methylpropyl)amino]-3-hydroxy-1-phenylbutan-2-yl]-3-[(4-fluorobenzene)sulfonyl]-2-methanesulfonamidopropanamide] | 10 | – | 10
6 | CC(C)(C)NC(=O)[C@@H]1C[C@@H]2SCC[C@@H]2CN1C[C@@H](O)[C@H](Cc1ccccc1)NC(=O)[C@@H](CS(=O)(=O)c1ccc2ccccc2c1)NC(=O)C(F)(F)F [(3aR,6S,7aS)-N-tert-butyl-5-[(2R,3S)-2-hydroxy-3-[(2S)-3-(naphthalene-2-sulfonyl)-2-(2,2,2-trifluoroacetamido)propanamido]-4-phenylbutyl]-octahydrothieno[3,2-c]pyridine-6-carboxamide] | < 0.2 | < 0.2 | –
7 | CC(=O)N[C@H](CSCc1ccccc1)C(=O)N[C@@H](Cc1ccccc1)[C@H](O)CN1C[C@H]2CCCC[C@H]2C[C@H]1C(=O)NC(C)(C)C [(3S,4aS,8aS)-2-[(2R,3S)-3-[(2S)-3-(benzylsulfanyl)-2-acetamidopropanamido]-2-hydroxy-4-phenylbutyl]-N-tert-butyl-decahydroisoquinoline-3-carboxamide] | 6 | – | 6
8 | CC(C)(C)NC(=O)[C@@H]1C[C@@H]2CCCC[C@@H]2CN1C[C@@H](O)[C@H](Cc1ccccc1)NC(=O)[C@@H](CS(=O)(=O)c1ccc2ccccc2c1)NS(C)(=O)=O [(3S,4aS,8aS)-N-tert-butyl-2-[(2R,3S)-2-hydroxy-3-[(2S)-2-methanesulfonamido-3-(naphthalene-2-sulfonyl)propanamido]-4-phenylbutyl]-decahydroisoquinoline-3-carboxamide] | 0.5 | – | 0.5
9 | CC(C)(C)NC(=O)[C@@H]1C[C@@H]2SCC[C@@H]2CN1C[C@@H](O)[C@H](Cc1ccccc1)NC(=O)[C@@H](CS(=O)(=O)c1cccc2cccnc12)NS(C)(=O)=O [(3aR,6S,7aS)-N-tert-butyl-5-[(2R,3S)-2-hydroxy-3-[(2S)-2-methanesulfonamido-3-(quinoline-8-sulfonyl)propanamido]-4-phenylbutyl]-octahydrothieno[3,2-c]pyridine-6-carboxamide] | 0.71 | – | 0.71
10 | CC(C)(C)NC(=O)[C@@H]1C[C@@H]2CCCC[C@@H]2CN1C[C@@H](O)[C@H](Cc1ccccc1)NC(=O)[C@@H](CSc1ccc2ccccc2c1)NS(C)(=O)=O [(3S,4aS,8aS)-N-tert-butyl-2-[(2R,3S)-2-hydroxy-3-[(2S)-2-methanesulfonamido-3-(naphthalen-2-ylsulfanyl)propanamido]-4-phenylbutyl]-decahydroisoquinoline-3-carboxamide] | 5.1 | – | 5.1
11 | CC(C)(C)NC(=O)[C@@H]1C[C@@H]2SCC[C@@H]2CN1C[C@@H](O)[C@H](CSc1ccccc1)NC(=O)[C@@H](CS(=O)(=O)c1ccc2ccccc2c1)NC(=O)C(F)(F)F [(3aR,6S,7aS)-N-tert-butyl-5-[(2R,3R)-2-hydroxy-3-[(2S)-3-(naphthalene-2-sulfonyl)-2-(2,2,2-trifluoroacetamido)propanamido]-4-(phenylsulfanyl)butyl]-octahydrothieno[3,2-c]pyridine-6-carboxamide] | 1.8 | – | 1.8
12 | CC(=O)N[C@H](CS(=O)(=O)c1ccc2ccccc2c1)C(=O)N[C@@H](Cc1ccccc1)[C@H](O)CN1C[C@H]2CCS[C@H]2C[C@H]1C(=O)NC(C)(C)C [(3aR,6S,7aS)-N-tert-butyl-5-[(2R,3S)-3-[(2S)-2-acetamido-3-(naphthalene-2-sulfonyl)propanamido]-2-hydroxy-4-phenylbutyl]-octahydrothieno[3,2-c]pyridine-6-carboxamide] | 0.5 | – | 0.5
13 | CC(C)(C)NC(=O)[C@@H]1C[C@@H]2SCC[C@@H]2CN1C[C@@H](O)[C@H](CSc1ccccc1)NC(=O)[C@@H](CS(=O)(=O)c1ccc(F)cc1)NC(=O)C(F)(F)F [(3aR,6S,7aS)-N-tert-butyl-5-[(2R,3R)-3-[(2S)-3-[(4-fluorobenzene)sulfonyl]-2-(2,2,2-trifluoroacetamido)propanamido]-2-hydroxy-4-(phenylsulfanyl)butyl]-octahydrothieno[3,2-c]pyridine-6-carboxamide] | 10 | – | 10
14 | CC(C)CN(C[C@@H](O)[C@H](Cc1ccccc1)NC(=O)[C@@H](CSc1ccc(F)cc1)NS(C)(=O)=O)C(=O)NC(C)(C)C [(2S)-N-[(2S,3R)-4-[(tert-butylcarbamoyl)(2-methylpropyl)amino]-3-hydroxy-1-phenylbutan-2-yl]-3-[(4-fluorophenyl)sulfanyl]-2-methanesulfonamidopropanamide] | 85 | – | 85
15 | CC(C)(C)NC(=O)[C@@H]1C[C@@H]2SCC[C@@H]2CN1C[C@@H](O)[C@H](Cc1ccccc1)NC(=O)[C@@H](CS(=O)(=O)c1ccc(F)cc1)NC(=O)C(F)(F)F [(3aR,6S,7aS)-N-tert-butyl-5-[(2R,3S)-3-[(2S)-3-[(4-fluorobenzene)sulfonyl]-2-(2,2,2-trifluoroacetamido)propanamido]-2-hydroxy-4-phenylbutyl]-octahydrothieno[3,2-c]pyridine-6-carboxamide] | < 0.2 | < 0.2 | –
